Here are results for seven compounds from PMC8294803, “A Roadmap to the Structure-Related Metabolism Pathways of Per- and Polyfluoroalkyl Substances in the Early Life Stages of Zebrafish (Danio rerio)” (Environmental Health Perspectives, 2021).

Series [1] has as its system zebrafish embryos. The experiment in a line: Time courses of carboxamides and PFCA metabolites in zebrafish embryos/larvae. Format: in vivo, Danio rerio. The following applies: zebrafish exposed to 5 μM of 19, 31 and 38 separately, N=20, three replicates. The protocol: Time courses of carboxamides (19, 31, and 38) and corresponding perfluoroalkyl carboxylic acid (PFCA) metabolites in zebrafish larvae were investigated. The procedure of zebrafish embryo collection was described above. Twenty embryos were randomly assigned into each well of a 24-well plate. Subsequently, 15 wells were dosed with 3mL of each chemical ( 5μM ). […] The exposure medium was prepared fresh and changed each day, and dead larvae were discarded. For each chemical, 3 wells were harvested every 24 h, and the surviving larvae were transferred to three different tubes for further PFAS extraction ( N=12–18 ).

The target of series [2] is liver fatty acid binding protein (L-FABP). Also noted: method as in Yang et al. 2020. As to conditions: ref Yang et al. 2020; read-out: Kd (μM), L-FABP binding affinity; cited from earlier work.
In series [3] the test system is zebrafish larvae. The experiment in a line: Bioconcentration factors (BCF) of PFAS in zebrafish larvae. The following applies: for BCF: exposure concentration not given. The protocol:
(§1) Zebrafish embryos were collected immediately after spawning, within 1 h, and subsequently transferred to 24-well plates with 1mL of facility water ( 0.036g sea salt, 0.15g sodium bicarbonate in 2L of reverse osmosis water). […] Three well replicates on the same plate were conducted for each concentration of individual chemical. […] Seven batches of experiments were performed to test all 74 PFAS. DMSO controls were incorporated in each batch of exposure experiments. Three replicates were performed for each treatment group, and 20 embryos were used for each replicate. […] For daily replenishment, 2.5mL of old exposure medium were replaced with freshly prepared medium every 24 h from 24 to 96 h post fertilization (hpf). Hatched or dead embryo numbers were recorded every 24 hpf, after which dead embryos were discarded from the growth media. Dead embryos or unhatched embryos were not used for PFAS measurement because the metabolism of PFAS might have been impacted. Zebrafish larvae collection occurred at 120 hpf. First, the larvae were anesthetized by cooling the plate in ice water (0–4°C) for ∼20 min . Then 8–15 larvae in each well were transferred into 1.5-mL tubes. Exposure media was carefully removed, and then the larvae were weighed (wet weight) after blotting excess water with a paper towel. […] Samples were stored at −80 °C until further chemical analysis was performed. Survival rate and hatching rate were calculated by summarizing all the documented data from the whole treatment duration. […] The exposure experiment of PFOSA was repeated using the same procedure as described above.
(§2) Each sample was spiked with 2μL of 0.2μg/mL mass-labeled PFAS mixture. Following this, 500μL of dichloromethane/methanol (2:1, vol/vol) was added to each sample for PFAS extraction. Larvae were then homogenized via ultrasonic probe, followed by 30 min of shaking and 30 min of sonication. Each sample was centrifuged at 14,000×g for 5 min, after which the supernatant was transferred to new tubes. Extraction was repeated once and the two supernatants were combined, evaporated under nitrogen flow, and reconstituted in 200μL of methanol for MS analysis.
(§3) Three microliters of each zebrafish extract was applied to a C18 column ( 1.5μm; 2.1mm×50mm; Thermo Scientific) and analyzed using a Vanquish ultra-HPLC system (Thermo Fisher Scientific) coupled to a Q Exactive high-resolution mass spectrometer (Thermo Fisher Scientific). The sampler and column compartments were maintained at 4°C and 40°C, respectively. The aqueous mobile phase solution (A) consisted of water, whereas the organic mobile phase solution (B) consisted of acetonitrile. […] MS data was acquired in full scan mode (100–1000 m/z, 70,000 mass resolution, 3×10^6 maximum ions collected per 100 ms), and tandem MS (MS/MS) data was recorded by all-ion fragmentation (AIF) mode. Negative and positive ion modes were carried out simultaneously at a 10-min method duration. […] An overview of the analyses conducted on the various PFAS is available in Table S2.
GraphPad Prism (version 7.0.4; GraphPad Software) and R studio (version 1.1.456; R Studio Inc.) software was used, and an ANOVA with Dunnett tests was employed to evaluate the statistical significance of the percentage hatched and mortality rate. Exponential regressions were used to determine the relationships between bioconcentration factor (BCF) and binding affinities ( Kd ) to L-FABP.

For series [4], the system named is zebrafish larvae. The experiment in a line: Nontargeted analysis of PFAS metabolites in zebrafish larvae (high-resolution MS). The following applies: for Metabolites / hydrolysis products in zebrafish larvae: in vivo, nontargeted analysis. The protocol: as §1, §2, §3
Nontargeted data analysis was accomplished with R scripts that are available on Github (https://github.com/huiUofT/PFASmetabolite). […] The peak features were matched across samples with a mass tolerance of 2.5 ppm and a RT window of 20 s, after RT adjustment. The ratio of abundances of each feature in treatment groups relative to the control group (DMSO) was calculated. The p -values of the difference between two groups were determined by student’s t -tests.

For series [5], the system named is zebrafish embryos. The following applies: for pericardial oedemata, Mean / spinal curvature, Mean / tail dysplasia, Mean: 5μM through 120 hpf, malformation rate; for Mortality (%): 5 µM, exposure through 120 hpf.
Series [6] addresses T1, recombinant human liver carboxylesterase 1 (hCES1) (Homo sapiens, UniProt P23141).
T1 construct: purchased Sigma Aldrich
T1 sequence (P23141 18-567): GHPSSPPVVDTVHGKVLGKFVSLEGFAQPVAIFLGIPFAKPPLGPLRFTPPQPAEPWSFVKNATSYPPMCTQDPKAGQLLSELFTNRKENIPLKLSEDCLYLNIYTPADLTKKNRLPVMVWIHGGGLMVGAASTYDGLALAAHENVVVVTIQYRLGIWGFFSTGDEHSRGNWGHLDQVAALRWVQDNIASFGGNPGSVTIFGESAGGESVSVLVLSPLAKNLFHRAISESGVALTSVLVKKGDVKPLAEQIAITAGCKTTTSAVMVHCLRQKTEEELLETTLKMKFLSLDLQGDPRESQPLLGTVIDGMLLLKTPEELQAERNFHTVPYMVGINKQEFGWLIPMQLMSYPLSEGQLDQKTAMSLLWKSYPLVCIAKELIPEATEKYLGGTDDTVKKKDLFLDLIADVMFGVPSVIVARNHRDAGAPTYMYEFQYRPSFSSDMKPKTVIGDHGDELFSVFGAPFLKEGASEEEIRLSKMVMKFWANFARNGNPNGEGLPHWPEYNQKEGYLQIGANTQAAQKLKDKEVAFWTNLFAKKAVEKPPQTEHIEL
Briefly: Hydrolysis of PFAS by recombinant hCES1. It counts as in vitro ADME. The following applies: for percentage of polyfluoroalkyl carboxamide 19, hCES1: 100 μg/L hCES1; for percentage of polyfluoroalkyl carboxamide 19, hCES1 / percentage of polyfluoroalkyl carboxamide 19, Control: 37 °C, 1 hour, N=3; for percentage of polyfluoroalkyl carboxamide 19, Control: vehicle control without hCES1; for Parent PFAS, hCES1 (%) / Parent PFAS, Control (%): 10 μM PFAS, single replicates; for Parent PFAS, hCES1 (%): 100 μg/L hCES1, phosphate buffer 37 °C 1 hour, axis %Control; for Parent PFAS, Control (%): without hCES1, phosphate buffer 37 °C 1 hour; for Concentration of hydrolysis product: from 10μM of parent, 100μg/L hCES1, 37°C. As for the experimental part: Because recombinant zebrafish CES is not available, we decided to use hCES1 to evaluate the structure-related hydrolysis of PFAS. […] In vitro enzymatic activity experiments were carried out for 1 h in 1.5-mL tubes with 100μL phosphate buffer ( 137 mM sodium chloride, 10 mM phosphate buffer, 2.7 mM potassium chloride; pH 7.4) at 37°C with shaking. Reaction mixtures contained different concentrations of PFAS (1, 10, and 50μM ) and 100μg/L hCES1. […] To stop the hydrolysis reaction, four times the volume of ice-cold methanol was added. The hCES1 protein was precipitated out by centrifugation ( 14,000×g , 10 min). The supernatant was transferred to a new tube and analyzed via MS for the analysis of parent compounds and suspected metabolites (i.e., carboxylates).

“And” between values parts separate entries of the source, which are not always exact repeats. Identical values can stand only once. “Also recorded” adds a separate entry of the source.

Take `O=C(O)C(F)(F)C(F)(F)C(F)(F)C(F)F` [1H-PFPeA]: the “Peak intensity in zebrafish” value in series [1] (24 hpf) was 41617598 and 43836041 and 44656574; in series [1] (48 hpf), 60989972 and 64452114 and 58767796; in series [1] (72 hpf) it was 101000000 and 97804534 and 98584848; in series [1] (96 hpf) it was 168000000 and 176000000 and 174000000; in series [1] (120 hpf), 221000000 and 206000000 and 215000000.

Broadly, the Kd is a measure of binding affinity in units of concentration. On to `O=C(O)C(F)(F)C(F)(F)C(F)F` [compound 4, 4H-Perfluorobutanoic acid], for which, in series [2], the Kd was 352 µM. Besides, the “Concentration in zebrafish larvae directly exposed” value in series [3] (5μM of the PFCA itself) is 7.0 ± 1.3 µM. The “BCF 0.5µM” value in series [3] (zebrafish larvae, 0.5 µM exposure, 120 hpf, three replicates) was 3.397 L/kg. In addition, the “BCF 5µM” value in series [3] (zebrafish larvae, 5 µM exposure, 120 hpf, three replicates) is 1.9 ± 0.4 L/kg. Also, in series [4] (5μM through 120 hpf, single replicates, listed as 1H-PFBA), the “Peak intensity of PFCA in zebrafish embryos directly exposed to the PFCA” value was 18758096 and 21668103 and 32644288. In addition, in series [5], the “pericardial oedemata, Mean” value is 1.11%; the “spinal curvature, Mean” value is 2.22%; the “tail dysplasia, Mean” value is given as 0.00%; the “Mortality (%)” value worked out at 0%.

On to `NC(=O)C(F)(F)C(F)(F)C(F)(F)C(F)(F)F` [compound 19, Nonafluoropentanamide], for which, in series [6] (1 μM 19), the “percentage of polyfluoroalkyl carboxamide 19, hCES1” value (“percentage … hCES1” for short) stood at 0.00%; the “percentage of polyfluoroalkyl carboxamide 19, Control” value (“percentage … Control” for short) was 114.95% and 85.05%. In addition, in series [6] (10 μM 19), the “percentage … hCES1” value was 0.00%; the “percentage … Control” value was 100.46% and 90.28% and 109.26%. In series [6] (10μM PFAS, 100μg/L hCES1), the “Parent hydrolyzed by hCES1” value is recorded as “completely metabolized”. Besides, in series [6], the “Parent PFAS, hCES1 (%)” value was 0.00%; the “Parent PFAS, Control (%)” value is 100.46% and 90.28% and 109.26%. In addition, in series [6] (50 μM 19), the “percentage … hCES1” value is 62.27% and 65.75% and 66.90%; the “percentage … Control” value was 96.65% and 95.06% and 108.30%. In series [3] (zebrafish larvae), the BCF is recorded as less than 10 L/kg. The “Metabolites / hydrolysis products in zebrafish larvae” value (shortened to “Metabolites / hydrolysis products”) in series [4] was “high abundances of metabolized carboxylates were detected”. In series [5], the “pericardial oedemata, Mean” value is 0.00%; the “spinal curvature, Mean” value is 0.00%; the “tail dysplasia, Mean” value came to 0.00%; the “Mortality (%)” value was determined as 1.1%.

Consider `NC(=O)C(F)(F)C(F)(F)C(F)(F)F` [compound 31, Heptafluorobutyramide], for which, in series [6], the “Parent PFAS, hCES1 (%)” value was 88.80% and 125.28% and 71.56%; the “Parent PFAS, Control (%)” value is 98.24% and 100.70% and 101.05%. The compound also returned a BCF in series [3] (zebrafish larvae) of less than 10 L/kg. For the same compound, the “Metabolites / hydrolysis products” value in series [4] is on record as “high abundances of metabolized carboxylates were detected”. For the same compound, in series [5], the “pericardial oedemata, Mean” value was 0.00%; the “spinal curvature, Mean” value was 0.00%; the “tail dysplasia, Mean” value is reported as 0.00%; the “Mortality (%)” value is recorded as 2.2%.

Regarding `COC(=O)C(F)(F)C(F)(F)C(F)(F)C(F)(F)C(F)(F)F` [compound 36, Methyl perfluorohexanoate], the “Concentration of hydrolysis product” value in series [6] was “not detected”. The “Metabolites / hydrolysis products” value in series [4] is on record as “metabolites were not detected”. Also, in series [5], the “pericardial oedemata, Mean” value is 1.11%; the “spinal curvature, Mean” value is reported as 0.00%; the “tail dysplasia, Mean” value amounted to 0.00%; the “Mortality (%)” value is given as 4.4%.

On to `COC(=O)C(F)(F)C(F)(F)C(F)(F)F` [compound 47, Methyl heptafluorobutyrate], for which the “Concentration of hydrolysis product” value in series [6] was “not detected”. Moreover, the “Metabolites / hydrolysis products” value in series [4] is given as “metabolites were not detected”. In series [5], the “pericardial oedemata, Mean” value was 2.22%; the “spinal curvature, Mean” value amounted to 1.11%; the “tail dysplasia, Mean” value is 0.00%; the “Mortality (%)” value was 0%.

In the case of `NC(=O)C(F)(F)C(F)(F)C(F)(F)C(F)(F)C(N)=O` [compound 58, Octafluoroadipamide], in series [6], the “Parent PFAS, hCES1 (%)” value is 97.41% and 90.44% and 135.26%; the “Parent PFAS, Control (%)” value is 83.59% and 76.79% and 139.62%; the “Concentration of hydrolysis product” value was “not detected”. In series [3] (zebrafish larvae), the BCF is recorded as less than 10 L/kg. The “Metabolites / hydrolysis products” value in series [4] is “metabolites were not detected; also recorded: no metabolite was detected”. Besides, in series [5], the “pericardial oedemata, Mean” value came to 1.11%; the “spinal curvature, Mean” value was 1.11%; the “tail dysplasia, Mean” value stood at 0.00%; the “Mortality (%)” value worked out at 6.7%.
